The values that follow come from paper PMC10747479, “Improving Bioaccessibility and Bioavailability of Isoflavone Aglycones from Chickpeas by Germination and Forming β-Cyclodextrin Inclusion Complexes” (Pharmaceutics, 2023).

Structures are written as SMILES. Like-named read-outs stand apart in the source and are kept apart here.

Data set [1] can be described thus: Tissue distribution of FMN and BCA in rats after oral CSE or inclusion complex. Conditions: 0.25 h after intragastric administration; for distribution characteristics of the contents in rat tissues: CSE or inclusion complex. It counts as in vivo, Sprague–Dawley (SD) rats. The method, then: (§1) The specific pathogen-free (SPF) male Sprague–Dawley (SD) rats (average body weight, 220 ± 10 g) aged eight weeks old were purchased from Shanghai Slake Laboratory Animal Co., Ltd. (Shanghai, China). After being raised in an environment-controlled feeding room for 1 week, the SD rats were divided into three groups (groups A, B, and C), with six in each group. They were fasted for 12 h and supplied with unlimited water before the experiments. In group A, 200 mg of the CSE/β-CD inclusion complex (FMN: 1.04 mg, BCA: 3.58 mg) was weighed and prepared into a 3 mL suspension by pure water and then given to each rat by gavage. In group B, a certain amount of CSE with FMN of the same quality as that in the inclusion complex was weighed and prepared into a 3 mL suspension by pure water and then given to each rat by gavage. In group C, a certain amount of CSE, ensuring that the content of BCA was the same as that in the inclusion complex, was weighed and prepared into s 3 mL suspension by pure water and then given to each rat by gavage. The dosage of FMN and BCA in rats was controlled at approximately 5 mg/kg and 18 mg/kg, respectively. Approximately 300 μL rat retro-orbital blood samples were obtained and transferred to heparinized tubes […] at 0.083, 0.25, 0.50, 0.75, 1, 2, 4, 6, 8, 12, and 24 h following intragastric administration. After centrifuging at 3500 rpm for 10 min, the upper plasma was put in clean tubes and placed at −20 °C before use. The rats were killed using the carbon dioxide box after taking blood at the last time point. A batch of new SD rats was raised with the same grouping and administration method for the study of tissue composition. At 0.25 h after intragastric administration, the rats were killed, and the organs including hearts, livers, spleens, lungs, kidneys, and brains were quickly separated, put into centrifuge tubes, and temporarily stored at 4 °C.
The contents of FMN and BCA in the tissues of rats were also determined by the above-established UPLC-MS/MS method.
The tissue was washed with normal saline to remove the residual blood, the water on the surface of the tissue was dried, and the tissue was weighed, cut into small pieces, and put into a centrifuge tube. Then, it was added to normal saline of the same amount as the tissue and ground into a homogenate. Then, 300 μL of the tissue homogenate was placed into a centrifuge tube, adding 60 μL of IS and 840 μL of acetonitrile to precipitate the protein. After centrifuging at 13,000 rpm for 10 min, the supernatant was collected and centrifuged again. Finally, the obtained supernatant was taken for subsequent analysis.

The nature of data set [2]: In vitro release in simulated gastric and intestinal fluid. It counts as physicochemical. Conditions: artificial gastric juice and artificial intestinal juice, 37 °C, 100 rpm, up to 24 h. The protocol:
According to the determination method of dissolution and release in Chinese Pharmacopoeia 2020, the in vitro sustained release of the isoflavones in the CSE/β-CD inclusion complex and CSE was determined on a SOTAX AT. 7× dissolution tester (Stetten, Switzerland) with a stirring rate of 100 rpm at 37 °C [16] using FMN and BCA as the evaluation index. Simulated gastric fluid (SGF) and simulated intestinal fluid (SIF) were used as release media. The preparation method of SGF was to mix 16.4 mL of the HCl solution (9.5–10.5% by volume) and 10 g of pepsin into 800 mL water, and finally adjust the volume to 1000 mL of water. The preparation of SIF was to add 6.8 g of potassium dihydrogen phosphate to 500 mL of water (use 0.1 M NaOH to adjust the pH to 6.8), then add 10 g of trypsin, and finally adjust the volume to 1000 mL of water. The CSE/β-CD inclusion complex (400.00 mg, containing 2.08 mg FMN and 7.16 mg BCA), CSE (94.12 mg, containing 2.08 mg FMN), and CSE (205.16 mg, containing 7.16 mg BCA) were weighed and added to 900 mL of release media, respectively. […] The sample was added to 3 times the volume of acetonitrile to remove the protein, then centrifuged at 10000 rpm for 10 min, and the obtained supernatant was analyzed by HPLC. […]

Data set [3] is described as follows: Inclusion ratio and drug loading of the CSE/β-CD inclusion complex. The following applies: for inclusion ratio: CSE with β-CD, optimal conditions: β-CD/CSE 4:1, 40 °C, 400 rpm, 2 h; for drug loading in the CSE/β-CD inclusion complex: optimal conditions. In kind it is physicochemical. The method, then:
A saturated aqueous solution method was used to prepare the inclusion complexes. β-CD (456 mg) was dispersed into 20 mL of water and heated with a water bath. CSE was accurately weighed according to the mass ratio of β-CD/CSE at 7:1 (g/g) to 3:1 (g/g) and dissolved in a small amount of ethanol to obtain CSE ethanol suspension, which was slowly dripped into the β-CD aqueous solution under 30 to 70 °C and at a stirring speed of 200 rpm to 1000 rpm. The mixed solution was stirred for 0.5 h to 4 h. After cooling to room temperature, the mixture was placed at 4 °C for 24 h, and then filtered quickly. The filter residue was moistened with a small amount of ethanol and dried to obtain the β-CD/CSE inclusion complex. The amounts of BCA and FMN in the initial CSE (Mc) and filtrate (Mf) were determined under the same conditions as above using an Agilent 1260 Infinity II HPLC. The inclusion ratio of FMN and BCA was used as an evaluation index to optimize the preparation methods. The calculation formula of the inclusion ratio (R%) was as follows:(1) R%=1−Mf/Mc×100% where Mf is the mass of the remaining isoflavones in the filtrate and Mc is the mass of the isoflavones in the CSE initially added.

A short description of data set [4]: Oral pharmacokinetics of FMN and BCA in rat plasma after CSE or CSE/β-CD inclusion complex. In kind it is in vivo, Sprague–Dawley (SD) rats. Conditions: rats; for AUC(0-inf) / AUC(0-t) / Cmax / half-life / k el / Tmax: male, Sprague-Dawley, rat; for AUC(0-inf) / AUC(0-t) / Cmax / half-life / k el / Tmax / CL / Vd: plasma, FMN approx. 5 mg/kg, BCA approx. 18 mg/kg; for AUC(0-inf) / AUC(0-t) / Cmax / half-life / k el: po; for k el: read-out: Ke (converted); for time at which concentration in rat plasma reached the peak / relative bioavailability in the inclusion complex relative to the CSE: oral; for time at which concentration in rat plasma reached the peak: given the CSE or the inclusion complex; for relative bioavailability in the inclusion complex relative to the CSE: ratio of the AUC. The protocol:
as §1
To comparatively evaluate the pharmacokinetics of the isoflavones in CSE and the CSE/β-CD inclusion complex, the content of FMN and BCA in rat plasma was determined on a UPLC-MS/MS system equipped with a Waters ACQUITY UPLC and a Xevo TQ-S micro ESI-MS/MS system (Milford, America). An ACQUITY UPLC BEH-C18 (2.1 mm × 100 mm, 1.7 μm) column was applied for the separation work using 0.05% formic acid in water (A) and acetonitrile (B) as the mobile phase with a flow rate of 0.2 mL/min and a column temperature of 30 °C. The gradient elution program was as follows: 0-6 min, A 50%. The selected multiple reaction monitoring (MRM) modes in the negative ESI mode of the mass spectrometer were used for all the analytes, and the capillary voltage was set at 2.66 kV with a source temperature of 150 °C using nitrogen as the desolvation gas and cone gas. The CHL was used as an internal standard (IS).
All plasma samples were stored at −20 °C and thawed at room temperature. To precipitate the protein, a 100 μL plasma sample was precisely aspirated, adding 40 μL of the IS solutions and 260 μL of acetonitrile, and vortexing for 3 min. Then the mixture was centrifuged at 13,000 rpm for 10 min and the 5 μL supernatant was injected for = UPLC-MS/MS analysis.
Compared with the rats fed the CSE, the rats fed the inclusion complex had higher Cmax, longer elimination half-lives (t1/2), larger areas under the concentration–time curve (AUC), and lower apparent volumes of distribution (Vd) and plasma clearance (CL). […] This caused the content of FMN and BCA in rats to be higher and have a longer retention time. The relative bioavailability of the two isoflavones in the inclusion complex relative to the CSE was calculated using the ratio of the AUC. […] It is reported that β-CD and its derivatives can inhibit the activity of P-glycoprotein, which is closely related to the bioavailability of oral drugs. The decrease in P-glycoprotein activity can reduce the excretion of drugs from cells.

The mark [5] stands for this setting: oral gavage of CSE/β-CD inclusion complex.

In the case of `COc1ccc(-c2coc3cc(O)ccc3c2=O)cc1` [FMN, formononetin], in data set [1], the “content in the tissues, inclusion complex compared with CSE” value is on record as “significantly higher” and the “distribution characteristics of the contents in rat tissues” value is recorded as “liver > kidneys > lungs > spleen > heart > brain”. In addition, in data set [2], the “solubility and dissolution properties by forming the CSE/β-CD inclusion complex, compared with CSE” value is recorded as “significantly improved”. In addition, in data set [3], the inclusion ratio is recorded as 53.31% and the “drug loading in the CSE/β-CD inclusion complex” value worked out at 5.2 mg/g. In data set [4] (setting [5]), this compound gave an AUC(0-inf) of 72 ± 25.7 ng·h/mL, an AUC(0-t) of 51.5 ± 12.3 ng·h/mL, a Cmax of 21 ± 2.81 ng/mL and a half-life of 4.51 ± 2.07 h. For the same compound, in data set [4] (setting [5]), the k el was 5.56e-05 s⁻¹, the CL is recorded as 75.79 ± 23.47 L/h and the Vd is given as 441.60 ± 140.88 L. In data set [4] (oral gavage of CSE), this compound showed an AUC(0-inf) of 37 ± 12.9 ng·h/mL, an AUC(0-t) of 30 ± 15.2 ng·h/mL, a Cmax of 14.4 ± 1.46 ng/mL and a half-life of 3.84 ± 2.1 h. Moreover, in data set [4] (oral gavage of CSE), the k el is 6.39e-05 s⁻¹, the Tmax came to 0.25 h, the CL was found to be 148.14 ± 47.18 L/h and the Vd is 722.51 ± 197.97 L. For the same compound, in data set [4], the “time at which concentration in rat plasma reached the peak” value is given as 15 min and the “relative bioavailability in the inclusion complex relative to the CSE” value is recorded as 171.6%.

For `COc1ccc(-c2coc3cc(O)cc(O)c3c2=O)cc1` [BCA, biochanin A], in data set [1], the “content in the tissues, inclusion complex compared with CSE” value is “significantly higher” and the “distribution characteristics of the contents in rat tissues” value is reported as “liver > kidneys > lungs > spleen > heart > brain”. In addition, in data set [2], the “solubility and dissolution properties by forming the CSE/β-CD inclusion complex, compared with CSE” value is listed as “significantly improved”. In addition, in data set [3], the inclusion ratio stood at 81.79% and the “drug loading in the CSE/β-CD inclusion complex” value came out at 17.9 mg/g. In data set [4] (setting [5]), this compound showed an AUC(0-inf) of 173 ± 56.3 ng·h/mL, an AUC(0-t) of 102 ± 45.3 ng·h/mL, a Cmax of 22.4 ± 2.45 ng/mL and a half-life of 7.33 ± 3.07 h. For the same compound, in data set [4] (setting [5]), the k el is 3.06e-05 s⁻¹, the CL is 93.83 ± 29.01 L/h and the Vd is on record as 896.37 ± 113.90 L. In data set [4] (oral gavage of CSE), this compound gave an AUC(0-inf) of 61.9 ± 15.5 ng·h/mL, an AUC(0-t) of 37.6 ± 17.7 ng·h/mL, a Cmax of 13.9 ± 3.17 ng/mL and a half-life of 4.63 ± 0.88 h. Besides, in data set [4] (oral gavage of CSE), the k el is 4.17e-05 s⁻¹, the Tmax stood at 0.25 h, the CL was determined as 252.24 ± 52.73 L/h and the Vd stood at 1635.82 ± 92.84 L. In addition, in data set [4], the “time at which concentration in rat plasma reached the peak” value stood at 15 min and the “relative bioavailability in the inclusion complex relative to the CSE” value is recorded as 270.7%.
